{"source": "patent US20140187426A1", "about": "“CROP ENHANCEMENT” (SYNGENTA PARTICIPATIONS AG, priority 2011, published 2014)", "format_in_all_cases": "in vivo", "key": {"[1]": {"system": "summer barley (Pasadena)", "assay": "Glasshouse trial, lodging of summer barley after leaf spray", "conditions": "for % lodging 30 DAA Summary barley: leaf spray at growth stage 30, 30 days after application", "excerpt": "(§1) A glasshouse trial was setup to assess growth effects of cis-jasmone on summer barley (Pasadena) and winter rye (Reknit).\n(§2) Each treatment was applied as a spray to the leaves of the plant at plant growth stage 30 (start of stem elongation). Assessments of lodging were made 30 days after application; the results are expressed as percentage lodging in Table 2."}, "[2]": {"system": "winter rye (Reknit)", "assay": "Glasshouse trial, lodging of winter rye after leaf spray", "conditions": "for % lodging 30 DAA Winter rye: leaf spray at growth stage 30, 30 days after application", "excerpt": "as §1, §2"}, "[3]": {"system": "Poa annua", "assay": "Turf colour assessment, golf course fairway trial", "excerpt": "(§3) A trial was setup to assess crop (turf) enhancement effects of cis-jasmone on Poa annua in a golf course […]. Each treatment was applied as a spray to the turfgrass. Assessments of turf colour and quality were made at several intervals after application; the results are expressed on a scale of 1 (poor) to 10 (good)."}, "[4]": {"system": "Poa annua", "assay": "Turf quality assessment, golf course fairway trial", "excerpt": "as §3"}, "[5]": {"system": "creeping bentgrass", "assay": "Turf colour assessment, golf course green trial", "conditions": "for Plant Colour 14DAA (2) / Plant Colour 14 DAA (3) / Plant Colour 7AA (2): scale 1 (poor) to 10 (good), 3 apps - 4 week interval; for Plant Colour 14DAA (2): 14 days after application 2; for Plant Colour 14 DAA (3): 14 days after application 3; for Plant Colour 7AA (2): after application 2", "excerpt": "A trial was setup to assess crop (turf) enhancement effects of cis-jasmone on a creeping bentgrass golf course green. Each treatment was applied as a spray to the turfgrass. Assessments of turf colour and quality were made at several intervals after application; the results are expressed on a scale of 1 (poor) to 10 (good) in Table 5."}, "[6]": {"system": "hybrid bermudagrass", "assay": "Turf growth (clipping weights), golf course fairway trial", "conditions": "for Clipping wt (g) 32 DAA (1): 3 apps - 4 week interval, 32 days after application 1", "excerpt": "A trial was setup to assess crop enhancement effects of cis-jasmone on a hybrid bermudagrass golf course […]. Each treatment was applied as a spray to the turfgrass. Assessments of turf growth (clipping weights in grams) were made at several intervals after application."}, "[7]": {"system": "summer oil seed rape variety Jumbo", "assay": "Glasshouse trial, leaf chlorophyll content (Dualex), variety Jumbo", "excerpt": "(§4) A glasshouse trial was setup to assess growth effects of cis-jasmone on summer oil seed rape varieties Jumbo and Senator. Each treatment was applied as a spray to the leaves of the plant at plant growth stage 13 (3 leaves). Three replicates of 2 plants were sowed in pots in the greenhouse. Assessments of chlorophyll content of the leaves were made using the Dualex technique 25 days after application; the results are expressed as Dualex units of Chlorophyll in Table 8."}, "[8]": {"system": "summer oil seed rape variety Senator", "assay": "Glasshouse trial, leaf chlorophyll content (Dualex), variety Senator", "excerpt": "as §4"}, "[9]": {"conditions": "during the entire study, versus untreated check"}, "[10]": {"conditions": "scale 1 (poor) to 10 (good), 50 g ai/ha, 4 applications on a 4 week schedule, 9-Jul"}, "[11]": {"conditions": "scale 1 (poor) to 10 (good), 50 g ai/ha, 4 applications on a 4 week schedule, 16-Jul"}, "[12]": {"conditions": "scale 1 (poor) to 10 (good), 50 g ai/ha, 4 applications on a 4 week schedule, 17-Jun"}}}
{"smiles": "CC/C=C\\CC1=C(C)CCC1=O", "note": "[Cis-jasmone (CJN), cis-jasmone]", "values": [{"measurement": "% lodging 30 DAA Summary barley", "setting": "[1]; 150 g AI/ha", "result": 70.0, "unit": "%"}, {"measurement": "% lodging 30 DAA Summary barley", "setting": "[1]; 300 g AI/ha", "result": 60.0, "unit": "%"}, {"measurement": "initial growth (in words)", "setting": "[1]; summer barley", "result": "faster initial growth"}, {"measurement": "effect on lodging (in words)", "setting": "[1]; summer barley, versus untreated check", "result": "significantly increases lodging"}, {"measurement": "% lodging 30 DAA Winter rye", "setting": "[2]; 150 g AI/ha", "result": 30.0, "unit": "%"}, {"measurement": "% lodging 30 DAA Winter rye", "setting": "[2]; 300 g AI/ha", "result": 23.3, "unit": "%"}, {"measurement": "effect on lodging (in words)", "setting": "[2]; winter rye, versus untreated check", "result": "significantly increases lodging"}, {"measurement": "effect on turf colour (in words)", "setting": "[3]; [9]", "result": "significantly increased turf colour"}, {"measurement": "Turf colour 4-June", "setting": "[3]; scale 1 (poor) to 10 (good), 50 g ai/ha, 4 applications on a 4 week schedule, 4-June", "result": 7.80, "unit": "b"}, {"measurement": "Turf colour 9-Jul", "setting": "[3]; [10]", "result": 8.2, "unit": "a"}, {"measurement": "Turf colour 10-June", "setting": "[3]; scale 1 (poor) to 10 (good), 50 g ai/ha, 4 applications on a 4 week schedule, 10-June", "result": 8.16, "unit": "a"}, {"measurement": "Turf colour 14-May", "setting": "[3]; scale 1 (poor) to 10 (good), 50 g ai/ha, 4 applications on a 4 week schedule, 14-May", "result": 5.8, "unit": "b"}, {"measurement": "Turf colour 16-Jul", "setting": "[3]; [11]", "result": 7.96, "unit": "a"}, {"measurement": "Turf colour 17-Jun", "setting": "[3]; [12]", "result": 7.80, "unit": "a"}, {"measurement": "Turf colour 21-May", "setting": "[3]; scale 1 (poor) to 10 (good), 50 g ai/ha, 4 applications on a 4 week schedule, 21-May", "result": 8.08, "unit": "b"}, {"measurement": "Turf colour 28-May", "setting": "[3]; scale 1 (poor) to 10 (good), 50 g ai/ha, 4 applications on a 4 week schedule, 28-May", "result": 6.00, "unit": "b"}, {"measurement": "effect on turf quality (in words)", "setting": "[4]; [9]", "result": "significantly increased turf quality"}, {"measurement": "Turf quality 3-Jul", "setting": "[4]; scale 1 (poor) to 10 (good), 50 g ai/ha, 4 applications on a 4 week schedule, 3-Jul", "result": 8.46, "unit": "a"}, {"measurement": "Turf quality 9-Jul", "setting": "[4]; [10]", "result": 8.42, "unit": "a"}, {"measurement": "Turf quality 10-Jun", "setting": "[4]; scale 1 (poor) to 10 (good), 50 g ai/ha, 4 applications on a 4 week schedule, 10-Jun", "result": 8.2, "unit": "a"}, {"measurement": "Turf quality 16-Jul", "setting": "[4]; [11]", "result": 8.1, "unit": "a"}, {"measurement": "Turf quality 17-Jun", "setting": "[4]; [12]", "result": 8.8, "unit": "a"}, {"measurement": "Turf quality 23-Jul", "setting": "[4]; scale 1 (poor) to 10 (good), 50 g ai/ha, 4 applications on a 4 week schedule, 23-Jul", "result": 8.18, "unit": "a"}, {"measurement": "Turf quality 24-Jun", "setting": "[4]; scale 1 (poor) to 10 (good), 50 g ai/ha, 4 applications on a 4 week schedule, 24-Jun", "result": 8.74, "unit": "a"}, {"measurement": "Turf quality 31-Jul", "setting": "[4]; scale 1 (poor) to 10 (good), 50 g ai/ha, 4 applications on a 4 week schedule, 31-Jul", "result": 7.96, "unit": "a"}, {"measurement": "effect on turf colour (in words)", "setting": "[5]; [9]", "result": "significantly increased turf colour"}, {"measurement": "Plant Colour 14DAA (2)", "setting": "[5]; 50 g ai/ha", "result": 5.40, "unit": "e"}, {"measurement": "Plant Colour 14 DAA (3)", "setting": "[5]; 50 g ai/ha", "result": 6.00, "unit": "c"}, {"measurement": "Plant Colour 7AA (2)", "setting": "[5]; 50 g ai/ha", "result": 5.6}, {"measurement": "Plant Colour 14DAA (2)", "setting": "[5]; 100 g ai/ha", "result": 6.00, "unit": "c"}, {"measurement": "Plant Colour 14 DAA (3)", "setting": "[5]; 100 g ai/ha", "result": 6.00, "unit": "c"}, {"measurement": "Plant Colour 7AA (2)", "setting": "[5]; 100 g ai/ha", "result": 5.7}, {"measurement": "Plant Colour 14DAA (2)", "setting": "[5]; 150 g ai/ha", "result": 6.00, "unit": "c"}, {"measurement": "Plant Colour 14 DAA (3)", "setting": "[5]; 150 g ai/ha", "result": 6.00, "unit": "c"}, {"measurement": "Plant Colour 7AA (2)", "setting": "[5]; 150 g ai/ha", "result": 6.08}, {"measurement": "Clipping wt (g) 32 DAA (1)", "setting": "[6]; 50 g ai/ha", "result": 37, "unit": "ab g"}, {"measurement": "Clipping wt (g) 32 DAA (1)", "setting": "[6]; 100 g ai/ha", "result": 45, "unit": "a g"}, {"measurement": "Clipping wt (g) 32 DAA (1)", "setting": "[6]; 150 g ai/ha", "result": 25, "unit": "c g"}, {"measurement": "effect on clipping weights (in words)", "setting": "[6]; early in the trial, versus untreated check", "result": "significantly increased clipping weights"}, {"measurement": "effect on chlorophyll content (in words)", "setting": "[7]", "result": "increased chlorophyll content"}, {"measurement": "effect on chlorophyll content (in words)", "setting": "[8]", "result": "not"}]}
